Values after ≈ are worked out from the molar mass of the structure shown. Where two headings read alike, the source gives them in different places.
Assays:
Tetrahymena pyriformis W = experiment: Antiprotozoan activity, serial dilution method (MIC); assay type: cell-based
Procedure: Then, with Tetrahymena pyriformis W as the test organism and a medium composed of 20 g tryptose-peptone (Difco Co.), 1 g yeast extract, 1 g glucose, 1000 ml distilled water, 10 ml 1 M phosphate buffer (pH 7.0) as the assay medium, the microorganism was incubated at 28° C. for 44 to 48 hours and the growth inhibitory activity of demethylmaytansinoid compound (I) was assayed by the serial dilution method.

[1] = test system: Hamigera avellanea IFO 7721; experiment: Antifungal activity, paper disc method (zone of growth inhibition); assay type: cell-based; settings: for zone of inhibition at 100 µg/mL: Hamigera avellanea
Procedure: On the other hand, on agar plates [3.5 g disodium hydrogen phosphate, 0.5 g monopotassium phosphate, 5 g of yeast extract (Difco), 10 g glucose, 15 g agar, 1000 ml distilled water, pH 7.0], the antifungal activity of the test compound was assayed against Hamigera avellanea IFO 7721 by the paper disc method. Thus, on the plates inoculated with the above microorganism, the zones of growth inhibition were determined using paper discs immersed with 0.02 ml of a 100 μg/ml solution of demethylmaytansinoid compound (I).

Solubility = settings: for Solubility in chloroform, ethyl acetate, acetone, ethanol, methanol, pyridine, tetrahydrofuran & dimethylsulfoxide: organic solvents (Table 3); for Solubility in petr. ether, n-hexane & water: n-hexane & water (Table 3); for Solubility in benzene, ether: ether (Table 4); for Solubility in chloroform, ethyl acetate, tetrahydrofuran, acetone, ethanol, methanol: organic solvents (Table 4); for Solubility in pyridine, dimethyl sulfoxide: dimethyl sulfoxide (Table 4)
[2] = pH 7, read-out: Antiprotozoan activity, MIC
[3] = IFO7721, read-out: Antifungal activity, (φ mm), zone of growth inhibition, paper disc (8 mm diam.), 0.02 ml of a 100 μg/ml solution
[4] = IFO7721, paper disc (8 mm diam.), 0.02 ml of a 100 μg/ml solution, read-out: Antifungal activity, (φ mm), zone of growth inhibition

| SMILES | MIC (Tetrahymena pyriformis W; [2]) [µg/mL] | zone of inhibition at 100 µg/mL [1, 3] [mm] | also measured |
| --- | --- | --- | --- |
| COC1C=CC=C(C)Cc2cc(O)c(Cl)c(c2)N(C)C(=O)CC(OC(=O)[C@H](C)N(C)C(=O)CC(C)C)C2(C)OC2C(C)C2CC1(O)NC(=O)O2 (stereo partly shown) [20-Demethoxy-20-hydroxymaytanvaline (L)] | 2 (≈ 2.78 µM) | 24 | – |
| COc1cc2cc(c1Cl)N(C)C(=O)CC(OC(=O)C(C)C)C1(C)OC1C(C)C1CC(O)(NC(=O)O1)C(OC)C=CC=C(C)C2 (stereo not shown) [Ansamitocin P-3, reference compound] | – | – | Solubility in chloroform, ethyl acetate, acetone, ethanol, methanol, pyridine, tetrahydrofuran & dimethylsulfoxide (Solubility): Soluble; Solubility in petr. ether, n-hexane & water (Solubility): Insoluble |
| COc1cc2cc(c1Cl)N(C)C(=O)CC(OC(=O)CC(C)C)C1(C)OC1C(C)C1CC(O)(NC(=O)O1)C(OC)C=CC=C(C)C2 (stereo not shown) [Ansamitocin P-4, reference compound] | – | – | Solubility in chloroform, ethyl acetate, acetone, ethanol, methanol, pyridine, tetrahydrofuran & dimethylsulfoxide (Solubility): Soluble; Solubility in petr. ether, n-hexane & water (Solubility): Insoluble |
| CCCC(=O)OC1CC(=O)N(C)c2cc(cc(O)c2Cl)CC(C)=CC=CC(OC)C2(O)CC(OC(=O)N2)C(C)C2OC12C (stereo not shown) [PDM-3', 20-demethoxy-20-hydroxymaytansinol 3-butyrate] | 2 (≈ 3.22 µM) | 21 | – |
| COC1C=CC=C(C)Cc2cc(O)c(Cl)c(c2)N(C)C(=O)CC(O)C2(C)OC2C(C)C2CC1(O)NC(=O)O2 (stereo not shown) [20-Demethoxy-20-hydroxymaytansinol] | 40 (≈ 72.6 µM) | < 8 | Solubility in benzene, ether (Solubility): Slightly soluble; Solubility in chloroform, ethyl acetate, tetrahydrofuran, acetone, ethanol, methanol (Solubility): Soluble; Solubility in pyridine, dimethyl sulfoxide (Solubility): Freely soluble |
| COC1C=CC=C(C)Cc2cc(O)c(Cl)c(c2)N(C)C(=O)CC(OC(=O)Nc2ccccc2)C2(C)OC2C(C)C2CC1(O)NC(=O)O2 (stereo not shown) [20-Demethoxy-20-hydroxymaytansinol 3-N-phenylcarbamate] | ≥ 8 | < 8 | – |
| COC1C=CC=C(C)Cc2cc(O)c(Cl)c(c2)N(C)C(=O)CC(OC(=O)[C@H](C)N(C)C(=O)C(C)C)C2(C)OC2C(C)C2CC1(O)NC(=O)O2 (stereo partly shown) [20-Demethoxy-20-hydroxymaytanbutine (L)] | – | 24 | – |
| CCCCCC(=O)OC1CC(=O)N(C)c2cc(cc(O)c2Cl)CC(C)=CC=CC(OC)C2(O)CC(OC(=O)N2)C(C)C2OC12C (stereo not shown) [20-Demethoxy-20-hydroxymaytansinol 3-hexanoate] | – | 21 | – |
| COC1C=CC=C(C)Cc2cc(O)c(Cl)c(c2)N(C)C(=O)CC(OC(=O)Cc2ccccc2)C2(C)OC2C(C)C2CC1(O)NC(=O)O2 (stereo not shown) [20-Demethoxy-20-hydroxymaytansinol 3-phenylacetate] | – | – | zone of inhibition at 100 µg/mL [1, 4]: 23 mm; Antifungal activity, (φ mm), zone of growth inhibition ([1]; paper disc (8 mm diam.), 0.02 ml of a 100 μg/ml solution): 15 mm |
| CCC(=O)OC1CC(=O)N(C)c2cc(cc(O)c2Cl)CC(C)=CC=CC(OC)C2(O)CC(OC(=O)N2)C(C)C2OC12C (stereo not shown) [20-Demethoxy-20-hydroxymaytansinol propionate] | – | 15 | Solubility in benzene, ether (Solubility): Slightly soluble; Solubility in chloroform, ethyl acetate, tetrahydrofuran, acetone, ethanol, methanol (Solubility): Soluble; Solubility in pyridine, dimethyl sulfoxide (Solubility): Freely soluble |
| COC1C=CC=C(C)Cc2cc(O)cc(c2)N(C)C(=O)CC(OC(=O)C(C)C)C2(C)OC2C(C)C2CC1(O)NC(=O)O2 (stereo not shown) [20-Demethoxy-20-hydroxydechloromaytansinol 3-isobutyrate] | – | 16 | – |
| COC1C=CC=C(C)Cc2cc(O)c(Cl)c(c2)N(C)C(=O)CC(OC(=O)c2ccccn2)C2(C)OC2C(C)C2CC1(O)NC(=O)O2 (stereo not shown) [20-Demethoxy-20-hydroxymaytansinol 3-picolinate] | ≥ 4 | 10 | – |
| COC1C=CC=C(C)Cc2cc(O)c(Cl)c(c2)N(C)C(=O)CC(OC(=O)c2ccc(Cl)cc2)C2(C)OC2C(C)C2CC1(O)NC(=O)O2 (stereo not shown) [20-Demethoxy-20-hydroxymaytansinol 3-p-chlorobenzoate] | 4 (≈ 5.8 µM) | 10 | – |
| COC1C=CC=C(C)Cc2cc(O)c(Cl)c(c2)N(C)C(=O)CC(OC(C)=O)C2(C)OC2C(C)C2CC1(O)NC(=O)O2 (stereo not shown) [20-Demethoxy-20-hydroxymaytanacine] | 10 (≈ 16.9 µM) | 10 | Solubility in benzene, ether (Solubility): Slightly soluble; Solubility in chloroform, ethyl acetate, tetrahydrofuran, acetone, ethanol, methanol (Solubility): Soluble; Solubility in pyridine, dimethyl sulfoxide (Solubility): Freely soluble |
| COC1C=CC=C(C)Cc2cc(O)c(Cl)c(c2)N(C)C(=O)CC(OC(=O)C(C)C)C2(C)OC2C(C)C2CC1(O)NC(=O)O2 (stereo not shown) [PDM-3] | – | – | MIC (Tetrahymena pyriformis W; serial dilution, 28° C., 44 to 48 hours, pH 7.0, read-out: Antiprotozoan activity, MIC): 2 µg/mL (≈ 3.22 µM); zone of inhibition at 100 µg/mL [1, 4]: 21 mm |
| COC1C=CC=C(C)Cc2cc(O)c(Cl)c(c2)N(C)C(=O)CC(OC(=O)CC(C)C)C2(C)OC2C(C)C2CC1(O)NC(=O)O2 (stereo not shown) [PDM-4, 20-demethoxy-20-hydroxymaytansinol 3-isovalerate] | 1 (≈ 1.57 µM) | 24 | Solubility in benzene, ether (Solubility): Slightly soluble; Solubility in chloroform, ethyl acetate, tetrahydrofuran, acetone, ethanol, methanol (Solubility): Soluble; Solubility in pyridine, dimethyl sulfoxide (Solubility): Freely soluble |
| COC1C=CC=C(C)Cc2cc(O)c(Cl)c(c2)N(C)C(=O)CC(OC(=O)C2CCCCC2)C2(C)OC2C(C)C2CC1(O)NC(=O)O2 (stereo not shown) [20-Demethoxy-20-hydroxymaytansinol 3-cyclohexanecarboxylate] | – | 20 | – |
| CCC(=O)N(C)[C@@H](C)C(=O)OC1CC(=O)N(C)c2cc(cc(O)c2Cl)CC(C)=CC=CC(OC)C2(O)CC(OC(=O)N2)C(C)C2OC12C (stereo partly shown) [20-Demethoxy-20-hydroxymaytanprine (L)] | – | 23 | – |
| COC1C=CC=C(C)Cc2cc(O)c(Cl)c(c2)N(C)C(=O)CC(OC(=O)[C@H](C)N(C)C(C)=O)C2(C)OC2C(C)C2CC1(O)NC(=O)O2 (stereo partly shown) [20-Demethoxy-20-hydroxymaytansine (L)] | > 16 | – | – |

— US4307016A, “Demethyl maytansinoids” (priority 1978, dated 1981)
